tested on: Aβ42; assay: Detection of secreted Aβ42 with Biosource ELISA kit in H4 cells expressing APP695; assay type: cell-based; conditions: Ab42 lowering, cell based assay; read-out: Ab42 IC50
Description: The present invention provides compositions and methods for lowering Aβ42 levels. To test whether compounds and compositions are capable of modulating Aβ levels, a sandwich enzyme-linked immunosorbent assay (ELISA) is employed to measure secreted Aβ (Aβ42 and/or Aβ40) levels. In this example, H4 cells expressing wide type APP695 are seeded at 200,000 cells/per well in 6 well plates, and incubated at 37 degree C. with 5% CO2 overnight. Cells are treated with 1.5 ml medium containing vehicle (DMSO) or a test compound at 1.25 μM, 2.5 μM, 5.0 μM and 10.0 μM (as well as other concentration if desirable) concentration for 24 hours or 48 hours. The supernatant from treated cells is collected into eppendorf tubes and frozen at −80 degree C. for future analysis.
The amyloid peptide standard is reconstituted and frozen samples are thawed. The samples and standards are diluted with appropriate diluents and the plate is washed 4 times with Working Wash Buffer and patted dry on a paper towel. 100 μL per well of peptide standards, controls, and dilutions of samples to be analyzed is added. The plate is incubated for 2 hours while shaking on an orbital plate shaker at RT. The plate is then washed 4 times with Working Wash Buffer and patted dry on a paper towel. Detection Antibody Solution is poured into a reservoir and 100 μL /well of Detection Antibody Solution is immediately added to the plate. The plate is incubated at RT for 2 hours while shaking and then washed four times with Working Wash Buffer and patted dry on a paper towel. Secondary Antibody Solution is then poured into a reservoir and 100 μL /well of Secondary Antibody Solution is immediately added to the plate. The plate is incubated at RT for 2 hours with shaking, washed 5 times with Working Wash Buffer, and patted dry on a paper towel.
100 μL of stabilized chromogen is added to each well and the liquid in the wells begins to turn blue. The plate is incubated for 30 minutes at room temperature and in the dark. 100 μL of stop solution is added to each well and the plate is tapped gently to mix resulting in a change of solution color from blue to yellow. The absorbance of each well is read at 450 nm having blanked the plate reader against a chromogen blank composed of 100 μL each of stabilized chromogen and stop solution. The plate is read within 2 hours of adding the stop solution. The absorbance of the standards is plotted against the standard concentration and the concentrations of unknown samples and controls are calculated.
These compounds were synthesized via the indicated synthetic route. Ab42 IC50 (uM) refers to IC50 value for Ab42 lowering in e.g., the assay described in Example 6.

Row | IC50 [µM] | Structure (SMILES)
1 | 16.5 | O=C(O)c1ccc(-n2c(-c3ccccc3)cc3c2CCC(C(F)(F)F)C3)o1 (centres unmarked) [5-(2-phenyl-5-trifluoromethyl 4,5,6,7-tetrahydroindol-1-yl)-furan-2-carboxylic acid]
2 | 25 | O=C(O)c1ccc(-n2c(-c3ccccc3)cc3c2CC(C(F)(F)F)CC3)o1 (centres unmarked) [5-(2-phenyl-6-trifluoromethyl 4,5,6,7-tetrahydroindol-1-yl)-furan-2-carboxylic acid]
3 | 22 | O=C(O)c1ccc(-n2c(-c3ccccc3)cc3c4ccccc4ccc32)o1 [5-(2-phenylbenzo[e]indol-3-yl)furan-2-carboxylic acid]
4 | 40 | O=C(O)c1ccc(-n2c(-c3ccccc3)cc3c2CCC(C2CCCCC2)C3)o1 (centres unmarked) [5-(5-cyclohexyl-2-phenyl-4,5,6,7-tetrahydroindol-1-yl)-furan-2-carboxylic acid]
5 | > 100 | CC1CCc2c(cc(-c3ccccc3)n2-c2ccc(C(=O)O)o2)C1 (centres unmarked) [5-(5-methyl-2-phenyl-4,5,6,7-tetrahydroindol-1-yl) furan-2-carboxylic acid]
6 | > 100 | COC(=O)c1ccc(-n2c(-c3ccccc3)cc3c2CCC(C(C)(C)C)C3)o1 (centres unmarked) [5-(5-tertButyl-2-phenyl-4,5,6,7-tetrahydroindol-1-yl) furan-2-carboxylic acid methyl ester]
7 | 3.7 | CC(C)(C)C1CCc2c(cc(-c3ccccc3)n2-c2ccc(C(=O)O)o2)C1 (centres unmarked) [5-(5-tertButyl-2-phenyl-4,5,6,7-tetrahydroindol-1-yl) furan-2-carboxylic acid]
8 | > 100 | CC1CCc2cc(-c3ccccc3)n(-c3ccc(C(=O)O)o3)c2C1 (centres unmarked) [5-(6-methyl-2-phenyl-4,5,6,7-tetrahydroindol-1-yl) furan-2-carboxylic acid]
9 | 7.36 | O=C(O)c1ccc(-n2c(-c3ccc(Cl)c(Cl)c3)cc3c2CCCC3C(F)(F)F)o1 (centres unmarked) [5-[2-(3,4-dichlorophenyl)-4-trifluoromethyl-4,5,6,7-tetrahydroindol-1-yl]-furan-2-carboxylic acid]
10 | 1.6 | O=C(O)c1ccc(-n2c(-c3ccc(Cl)c(Cl)c3)cc3c2CCC(C(F)(F)F)C3)o1 (centres unmarked) [5-[2-(3,4-dichlorophenyl)-5-trifluoromethyl 4,5,6,7-tetrahydroindol-1-yl]-furan-2-carboxylic acid]
11 | 8.9 | O=C(O)c1ccc(-n2c(-c3ccc(Cl)c(Cl)c3)cc3c2CC(C(F)(F)F)CC3)o1 (centres unmarked) [5-[2-(3,4-dichlorophenyl)-6-trifluoromethyl-4,5,6,7-tetrahydroindol-1-yl]-furan-2-carboxylic acid]
12 | 7 | O=C(O)c1ccc(-n2c(-c3ccc(Cl)c(Cl)c3)cc3c4ccccc4ccc32)o1 [5-[2-(3,4-dichlorophenyl)-benzo[e]indol-3-yl]-furan-2-carboxylic acid]
13 | > 100 | O=C(O)c1coc(Cn2c(-c3cc(-c4ccccc4)no3)cc3c2CCc2ccccc2-3)c1 [5-[2-(3-phenylisoxazol-5-yl)-4,5-dihydrobenzo[e]indol-3-ylmethyl] furan-3-carboxylic acid]
14 | 33 | O=C(O)c1ccc(-n2c(-c3cc(-c4ccccc4)no3)cc3c4ccccc4ccc32)o1 [5-[2-(3-phenylisoxazol-5-yl)-benzo[e]indol-3-yl] furan-2-carboxylic acid]
15 | > 100 | O=C(O)c1coc(Cn2c(-c3cc(-c4ccccc4)no3)cc3c4ccccc4ccc32)c1 [5-[2-(3-phenylisoxazol-5-yl)-benzo[e]indol-3-ylmethyl] furan-3-carboxylic acid]
16 | 68 | O=C(O)c1ccc(-n2c(-c3ccc(N4CCOCC4)cc3)cc3c2CCC(C(F)(F)F)C3)o1 (centres unmarked) [5-[2-(4-morpholin-4-yl-phenyl)-5-trifluoromethyl-4,5,6,7-tetrahydroindol-1-yl]-furan-2-carboxylic acid]
17 | 21 | O=C(O)c1ccc(-n2c(-c3ccc(C(F)(F)F)cc3)cc3c4ccccc4ccc32)o1 [5-[2-(4-trifluoromethylphenyl)-benzo[e]indol-3-yl]-furan-2-carboxylic acid]
18 | 18 | CCC(C)(C)C1CCc2c(cc(-c3cc4ccccc4o3)n2-c2ccc(C(=O)O)o2)C1 (centres unmarked) [5-[2-benzofuran-2-yl-5-(1,1-dimethylpropyl) 4,5,6,7-tetrahydroindol-1-yl]-furan-2-carboxylic acid]
19 | 5.1 | CCC(C)(C)C1CCc2c(cc(-c3ccccc3)n2-c2ccc(C(=O)O)o2)C1 (centres unmarked) [5-[5-(1,1-dimethylpropyl)-2-phenyl-4,5,6,7-tetrahydroindol-1-yl]-furan-2-carboxylic acid]
20 | 11.7 | CC(C)(C)C1CCc2c(cc(-c3ccc(Cl)c(Cl)c3)n2-c2ccc(C(=O)O)o2)C1 (centres unmarked) [5-[5-tButyl-2-(3,4-dichlorophenyl)-4,5,6,7-tetrahydroindol-1-yl] furan-2-carboxylic acid]
21 | 14 | CC(C)(C)C1CCc2c(cc(-c3ccc(C(F)(F)F)cc3)n2-c2ccc(C(=O)O)o2)C1 (centres unmarked) [5-[5-tButyl-2-(4-trifluoromethylphenyl)-4,5,6,7-tetrahydroindol-1-yl] furan-2-carboxylic acid]
22 | 63 | CC(C)(C)C1CCc2c(cc(-c3ccccc3)n2-c2nnc[nH]2)C1 (centres unmarked) [5-tButyl-2-phenyl-1-(4H-[1,2,4]triazol-3-yl)-4,5,6,7-tetrahydro-1H-indole]

same assay, conditions: IC50 value for Ab42 lowering in e.g. the assay described in Example 6; read-out: Ab42 IC50

Row | IC50 [µM] | Structure (SMILES)
23 | 55 | O=C(O)c1cccc(-n2c(-c3ccccc3)cc3ccccc32)c1 [Compound 17, 3-(2-phenylindol 1-yl) benzoic acid]
24 | 8 | CC(C)(C)C1CCc2c(cc(-c3ccccc3)n2-c2cccc(C(=O)O)c2)C1 (centres unmarked) [Compound 34, 3-(5-tert-butyl-2-phenyl-4,5,6,7-tetrahydroindol-1-yl)benzoic acid]
25 | 24 | c1ccc(-c2cc3c(n2-c2cccc(-c4nn[nH]n4)c2)CCc2ccccc2-3)cc1 [Compound 63, 2-phenyl-3-[3-(2H-tetrazol-5-yl)-phenyl]-4,5-dihydro-3H-benzo[e]indole]
26 | 54 | O=C(O)C1CCCC(n2c(-c3ccccc3)cc3c4ccccc4ccc32)C1 (centres unmarked) [Compound 66, 3-(2-phenylbenzo[e]indol-3-yl) cyclohexane carboxylic acid]
27 | 35 | O=C(O)CCCn1c(-c2ccccc2)cc2c1CCc1ccccc1-2 [Compound 67, 4-(2-phenyl-4,5-dihydrobenzo[e]indol-3-yl) butyric acid]
28 | 31 | O=C(O)CCCn1c(-c2ccccc2)cc2c3ccccc3ccc21 [Compound 68, 4-(2-phenyl-benzo[e]indol-3-yl) butyric acid]
29 | 45 | O=C(O)c1ccc(-c2cc3c(n2-c2ccccc2)CCc2ccccc2-3)cc1 [Compound 69, 4-(3-phenyl-4,5-dihydro-3H-benzo[e]indol-2-yl) benzoic acid]
30 | 50 | O=C(O)c1cccc(-n2c(-c3ccccc3)cc3c2CCC(c2ccccc2)C3)c1 (centres unmarked) [Compound 71, 3-(2,5-diphenyl 4,5,6,7-tetrahydroindol-1-yl) benzoic acid]
31 | 20 | CC(C)(C)C1CCc2c(cc(-c3ccccc3)n2-c2cccc(CCC(=O)O)c2)C1 (centres unmarked) [Compound 85, 3-[3-(5-tert-Butyl-2-phenyl 4,5,6,7-tetrahydroindol-1-yl)-phenyl] propionic acid]
32 | 30 | O=C(O)CCCc1ccc(-n2c(-c3ccccc3)cc3c2CCCC3)cc1 [Compound 86, 4-[4-(2-phenyl 4,5,6,7-tetrahydroindol-1-yl)-phenyl] butyric acid]
33 | 12 | O=C(O)c1cccc(-n2c(-c3ccccc3)cc3c4ccccc4ccc32)c1 [Compound 87, 3-(2-phenylbenzo[e]indol-3-yl) benzoic acid]
34 | 27 | CC1CCc2c(cc(-c3ccccc3)n2-c2cccc(CCC(=O)O)c2)C1 (centres unmarked) [Compound 88, 3-[3-(5-methyl-2-phenyl-4,5,6,7-tetrahydroindol-1-yl)-phenyl] propionic acid]
35 | 8 | O=C(O)CCCc1ccc(-n2c(-c3ccccc3)cc3c4ccccc4ccc32)cc1 [Compound 89, 4-[4-(2-phenyl-benzo[e]indol-3-yl)-phenyl] butyric acid]
36 | 54 | O=C(O)CCc1cccc(-n2c(-c3ccccc3)cc3c2CCCC3)c1 [Compound 90, 3-[3-(2-phenyl-4,5,6,7-tetrahydroindol-1-yl)-phenyl] propionic acid]
37 | 3 | CC1CCCc2c1cc(-c1ccccc1)n2-c1cccc(C(=O)O)c1 (centres unmarked) [Compound 91, 3-(4-methyl-2-phenyl-4,5,6,7-tetrahydroindol-1-yl) benzoic acid]
38 | 27 | O=C(O)Cc1ccccc1-n1c(-c2ccccc2)cc2c1CCc1ccccc1-2 [Compound 92, [2-(2-phenyl-4,5-dihydrobenzo[e]indol-3-yl)-phenyl] acetic acid]

Source: patent US9034871B2, “Compounds for Alzheimer's disease” (priority 2004, dated 2015)
